Laboratory results from US20110160251A1, “ANIMAL ECTOPARASITE CONTROL COMPOSITION” (priority 2009, published 2011).

System: Haemaphysalis longicornis
Test: Test Example 6: filter paper contact test, fatality of ticks, compound in single solvent
Format: in vivo
Conditions: 63.6 mg/ml, 0.2 ml on filter paper (treatment amount 2000 mg/m^2), after 24 hours at 25° C.; for Fatality rate of tick (%) Example 2 diisobutyl adipate: solvent diisobutyl adipate; for Fatality rate of tick (%) Example 1 diisopropyl adipate: solvent diisopropyl adipate; for Fatality rate of tick (%) Comparative Example 1 Propylene Carbonate: solvent propylene carbonate
Procedure: The halogen-containing organosulfur compound (33) or (35) was dissolved in a solvent such that the concentration of the halogen-containing organosulfur compound was 63.6 mg/ml to a test solution. A filter paper was put on the bottom face of a glass petri dish with 7 cm diameter and treated with 0.2 ml of the test solution (treatment amount: 2000 mg/m^2). On the filter paper, 10 Haemaphysalis longicornis were released and allowed to contact the filter paper. The glass petri dish was allowd to stand still at 25° C. After 24 hours, fatalities of the insects were observed.

SMILES	Fatality rate of tick (%) Example 2 diisobutyl adipate [%]	Fatality rate of tick (%) Example 1 diisopropyl adipate [%]	Fatality rate of tick (%) Comparative Example 1 Propylene Carbonate [%]
CCON=C1CCC(C(C#N)S(=O)(=O)CCC(F)(F)F)CC1 (stereo not drawn) [Compound (35), 2-[4-(ethoxyimino)cyclohexyl]-2-(3,3,3-trifluoropropylsufonyl)acetonitrile]	80	100	20
CON=C1CCC(C(C#N)S(=O)(=O)CCC(F)(F)F)CC1 (stereo not drawn) [Compound (33), 2-[4-(methoxyimino)cyclohexyl]-2-(3,3,3-trifluoropropylsulfonyl)acetonitrile]	85	100	25
